# Numbers after ± are expanded uncertainties.
# Tests used:
# [1] = Crystal; DSC
# [2] = Molar enthalpy of transition or fusion; details: Crystal; DSC
compound,measurement,setting,value
O=[N+]([O-])[O-].c1cc[nH+]cc1 [pyridinium nitrate],Triple point temperature,[1],390 ± 5 K
same,Molar enthalpy of transition or fusion,[2],4.13 ± 0.148 kcal/mol
